{"source": "patent US6361758B1", "about": "“Cosolvent formulations” (Abbott Laboratories, priority 1998, dated 2002)", "key": {"[1]": {"assay": "Solubility of paracalcin in a cosolvent system", "type": "physicochemical", "conditions": "25° C.", "experimental": "An adequate amount of paracalcin was weighed and added to 10 ml of cosolvent contained in a 10 ml stoppered glass test tube. Two samples were prepared for each cosolvent composition. The test tubes containing samples were shaken in a 25° C. reciprocal shaking water bath at 100 rpm. Upon complete dissolution, an aliquot was filtered through a 0.45 micron syringe filter and the filtrate diluted 1:1 with 50% methanol. The resulting diluted material was measured for the content of paracalcin."}, "[2]": {"tested_on": "Staphylococcus aureus, Escherichia coli, Pseudomonas aeruginosa, Candida albicans, Aspergillus niger", "assay": "USP 23 preservative effectiveness test", "type": "cell-based", "conditions": "added to the 20% ethanol/30% PG formulation; data not shown", "excerpt": "Solutions of 20% ethanol, 30% propylene glycol, 20% ethanol/30% PG, 30ethanol/20% PG, and 40% ethanol/10% PG were passed through a 0.45 micro filter and tested by the USP 23 preservative effectiveness test as described in United States Pharmacopoeia 23-NF 18, 1995 Ed., Chapter 51, page 1681, which is incorporated herein by reference. Briefly, this involves inoculating the test solution with 10^5 to 10^6 test organisms per milliliter and then determining the number of surviving organisms after 7, 14, 21, and 28 days incubation at 20-25° C. using standard microbiological methods. Day 0 data is not required by USP 23 but was included in this study. A filtration and wash method was used to remove the inactivating agents for purposes of recovering the microorganisms, but other equivalent agents can also be validated for use. The USP test organisms include the bacteria Staphylococcus aureus, Escherichia coli, and Pseudomonas aeruginosa, a yeast (Candida albicans), and a mold (Aspergillus niger). […] The yeast and mold must not increase from the initial inoculum level. The initial inoculum level can either be calculated by knowing the stock culture concentration or by using a buffer control instead of the test solution."}, "[3]": {"assay": "Stability of paracalcin in a cosolvent formulation", "type": "physicochemical", "conditions": "5 μg/ml in 20% ethanol/30% propylene glycol/50% water", "experimental": "Samples of paracalcin (5 μg/ml) in 20% ethanol/30% propylene glycol/50% water were prepared for stability testing. In an appropriate vessel, water for injection to approximately 30% of final volume is added. Propylene glycol is added to the vessel with mixing. In a separate container, the specified amount of paracalcin is dissolved in a portion of the ethanol (190 proof non-beverage), which is obtained from the total volume of ethanol specified for the batch, and added to the vessel with mixing. An additional aliquot of the batch ethanol is used to rinse the container and the rinsing solution is added to the vessel with mixing. The remaining alcohol is added to the vessel with mixing. Q.s. with water for injection to final volume and mix for approximately 30 minutes. The solution is filtered through a 0.45 micron membrane and dispensed into ampuls. Each ampul is flame sealed and autoclaved to F016.\nOne set of ampuls are tested (T=0) for percent paracalcin remaining in solution and served as control (i.e., 100% remaining). A second set of ampuls are stored at 40° C. and tested at 1, 2, and 3 months. A final set are stored at 30° C. and tested at 1, 2, 3, 6, 9, 12, 18, and 24 months. The results are shown in Table 2 as paracalcin remaining as a percent of control (T=0). Each time point represents 1 to 5 data points."}}, "data": [{"smiles": "C[C@H](/C=C/[C@H](C)C(C)(C)O)[C@H]1CC[C@H]2/C(=C/C=C3C[C@@H](O)C[C@H](O)C3)CCC[C@]12C", "note": "[paracalcin, 19-nor-1α,3β,25-trihydroxy-9,10-secoergosta-5,7(E),22(E)-triene]", "values": [{"measurement": "Paracalcin concentration in cosolvent (solubility)", "setting": "[1]; Ethanol 0.00, Propylene glycol 0.302, Water 0.698", "result": 0.58, "unit": "µg/mL"}, {"measurement": "Paracalcin concentration in cosolvent (solubility)", "setting": "[1]; Ethanol 0.00, Propylene glycol 0.506, Water 0.494", "result": 14.21, "unit": "µg/mL"}, {"measurement": "Paracalcin concentration in cosolvent (solubility)", "setting": "[1]; Ethanol 0.100, Propylene glycol 0.257, Water 0.643", "result": 2.88, "unit": "µg/mL"}, {"measurement": "Paracalcin concentration in cosolvent (solubility)", "setting": "[1]; Ethanol 0.199, Propylene glycol 0.207, Water 0.594", "result": 15.94, "unit": "µg/mL"}, {"measurement": "Paracalcin concentration in cosolvent (solubility)", "setting": "[1]; Ethanol 0.201, Propylene glycol 0.308, Water 0.491", "result": 72.90, "unit": "µg/mL"}, {"measurement": "Paracalcin concentration in cosolvent (solubility)", "setting": "[1]; Ethanol 0.299, Propylene glycol 0.00, Water 0.701", "result": 6.82, "unit": "µg/mL"}, {"measurement": "Paracalcin concentration in cosolvent (solubility)", "setting": "[1]; Ethanol 0.347, Propylene glycol 0.102, Water 0.551", "result": 119.37, "unit": "µg/mL"}, {"measurement": "Paracalcin concentration in cosolvent (solubility)", "setting": "[1]; Ethanol 0.498, Propylene glycol 0.00, Water 0.502", "result": 601.63, "unit": "µg/mL"}, {"measurement": "effect of addition of paracalcin on the preservative effect of the formulation", "setting": "[2]", "result": "no effect"}, {"measurement": "paracalcin remaining as a percent of control (T=0)", "setting": "[3]; 30° C., 0 months (Initial), autoclaved ampuls", "result": "100% of control"}, {"measurement": "paracalcin remaining as a percent of control (T=0)", "setting": "[3]; 30° C., 1 month", "result": "96% of control"}, {"measurement": "paracalcin remaining as a percent of control (T=0)", "setting": "[3]; 30° C., 2 months", "result": "96% of control"}, {"measurement": "paracalcin remaining as a percent of control (T=0)", "setting": "[3]; 30° C., 3 months", "result": "97% of control"}, {"measurement": "paracalcin remaining as a percent of control (T=0)", "setting": "[3]; 30° C., 6 months", "result": "96% of control"}, {"measurement": "paracalcin remaining as a percent of control (T=0)", "setting": "[3]; 30° C., 9 months", "result": "97% of control"}, {"measurement": "paracalcin remaining as a percent of control (T=0)", "setting": "[3]; 30° C., 12 months", "result": "100% of control"}, {"measurement": "paracalcin remaining as a percent of control (T=0)", "setting": "[3]; 30° C., 18 months", "result": "97% of control"}, {"measurement": "paracalcin remaining as a percent of control (T=0)", "setting": "[3]; 30° C., 24 months", "result": "96% of control"}, {"measurement": "paracalcin remaining as a percent of control (T=0)", "setting": "[3]; 40° C., 0 months (Initial), autoclaved ampuls", "result": "100% of control"}, {"measurement": "paracalcin remaining as a percent of control (T=0)", "setting": "[3]; 40° C., 1 month", "result": "96% of control"}, {"measurement": "paracalcin remaining as a percent of control (T=0)", "setting": "[3]; 40° C., 2 months", "result": "96% of control"}, {"measurement": "paracalcin remaining as a percent of control (T=0)", "setting": "[3]; 40° C., 3 months", "result": "98% of control"}]}]}
